Source: patent US20250019373A1, “ARYL OR HETEROARYL DERIVATIVE, AND PHARMACEUTICAL COMPOSITION COMPRISING SAME AS ACTIVE INGREDIENT FOR PREVENTION OR TREATMENT OF KINASE-RELATED DISEASES” (VORONOI INC., priority 2021, published 2025)

Tested on: HT-29 cells
Experiment: Cell necrosis inhibitory activity under necroptosis-inducing conditions (TNF-α, Z-VAD-FMK, LCL161) in HT-29 cells, Cell Titer-Glo
Type: cell-based
Conditions: Homo sapiens, 100 ng/mL TNF-α + 25 μM Z-VAD-FMK + Smac mimetic LCL161, 24 hours, cell viability
Outline: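 HT-29 cells seeded 24 h, then necroptosis induced with 100 ng/mL TNF-α, 25 μM Z-VAD-FMK and 10 μM LCL161 for 10 min before compound (11 points, 3-fold, top 0.1 or 1 μM; 0.05% DMSO). After 24 h, viability by CellTiter-Glo luminescence relative to untreated controls gave EC50 (nM).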

Row | Structure (SMILES) | EC50 [nM]
1 | Cc1ccc(-c2cc3c(cn2)ncn3C)cc1NC(=O)N1OCC[C@H]1c1ccccc1 [Example 133, (S)-N-(2-methyl-5-(1-methyl-1H-imidazo[4,5-c]pyridin-6-yl)phenyl)-3-phenylisoxazolidine-2-carboxamide] | 6.5
2 | Cc1ncc(-c2ccc3nc(N)nn3c2)cc1NC(=O)N1OCC[C@H]1c1cccc(F)c1 [Example 37, (S)-N-(5-(2-amino-[1,2,4]triazolo[1,5-a]pyridin-6-yl)-2-methylpyridin-3-yl)-3-(3-fluorophenyl)isoxazolidine-2-carboxamide] | 1.1
3 | Cc1ccc(-c2ccc3nnc(C)n3n2)cc1NC(=O)N1OCC[C@H]1c1ccccc1 [Example 107, (S)-N-(2-methyl-5-(3-methyl-[1,2,4]triazolo[4,3-b]pyridazin-6-yl)phenyl)-3-phenylisoxazolidine-2-carboxamide] | 23.2
4 | Cc1ccc(-c2ccc3ncn(C)c3n2)cc1NC(=O)N1OCC[C@H]1c1ccccc1 [Example 143, (S)-N-(2-methyl-5-(3-methyl-3H-imidazo[4,5-b]pyridin-5-yl)phenyl)-3-phenylisoxazolidine-2-carboxamide] | 5
5 | Cc1ccc(-c2ccc3nc(N)sc3n2)cc1NC(=O)N1OCC[C@H]1c1ccccc1 [Example 98, (S)-N-(5-(2-aminothiazolo[5,4-b]pyridin-5-yl)-2-methylphenyl)-3-phenylisoxazolidine-2-carboxamide] | 0.3
6 | Nc1nc2ccc(-c3ccc(Cl)c(NC(=O)N4OCC[C@H]4c4ccccc4)c3F)cn2n1 [Example 105, (S)-N-(3-(2-amino-[1,2,4]triazolo[1,5-a]pyridin-6-yl)-6-chloro-2-fluorophenyl)-3-phenylisoxazolidine-2-carboxamide] | 43.8
7 | C#Cc1cnc2ccc(-c3ccc(C)c(NC(=O)N4OCC[C@H]4c4ccccc4)c3)nn12 [Example 125, (S)-N-(5-(3-ethynylimidazo[1,2-b]pyridazin-6-yl)-2-methylphenyl)-3-phenylisoxazolidine-2-carboxamide] | 1.4
8 | Cc1ncc(-c2ccc3c(N)ncnn23)cc1NC(=O)N1OCC[C@H]1c1ccccc1 [Example 120, (S)-N-(5-(4-aminopyrrolo[2,1-f][1,2,4]triazin-7-yl)-2-methylpyridin-3-yl)-3-phenylisoxazolidine-2-carboxamide] | 1
9 | Cc1ncc(-c2ccc3nc(N)nn3c2)cc1NC(=O)N1OCC[C@H]1c1cccc(C(F)(F)F)c1 [Example 41, (S)-N-(5-(2-amino-[1,2,4]triazolo[1,5-a]pyridin-6-yl)-2-methylpyridin-3-yl)-3-(3-(trifluoromethyl)phenyl)isoxazolidine-2-carboxamide] | 1
10 | O=C(Nc1nc2ccc(-c3cccc(NC(=O)N4OCC[C@H]4c4ccccc4)c3)cc2s1)C1CC1 [Example 25, (S)-N-(3-(2-(cyclopropanecarboxamido)benzo[d]thiazol-6-yl)phenyl)-3-phenylisoxazolidine-2-carboxamide] | 0.2
11 | CNC(=O)c1n[nH]c2cc(-c3cc(NC(=O)N4OCC[C@H]4c4ccccc4)cnc3OC)ccc12 [Example 23, (S)-N-(6-methoxy-5-(3-(methylcarbamoyl)-1H-indazol-6-yl)pyridin-3-y1)-3-phenylisoxazolidine-2-carboxamide] | 8.1
12 | Cc1ccc([C@@H]2CCON2C(=O)Nc2cc(-c3ccc4nc(N)nn4c3)cnc2C)cn1 [Example 51, (S)-N-(5-(2-amino-[1,2,4]triazolo[1,5-a]pyridin-6-yl)-2-methylpyridin-3-yl)-3-(6-methylpyridin-3-yl)isoxazolidine-2-carboxamide] | 23.3
13 | Cc1ccc(-c2ccc3nc(N)nn3c2)cc1NC(=O)N1OCC[C@H]1c1ccccc1 [Example 32, (S)-N-(5-(2-amino-[1,2,4]triazolo[1,5-a]pyridin-6-yl)-2-methylphenyl)-3-phenylisoxazolidine-2-carboxamide] | 0.6
14 | Cc1ccc(-c2ccc3ncc(C#CC(C)(C)O)n3n2)cc1NC(=O)N1OCC[C@H]1c1ccccc1 [Example 117, (S)-N-(5-(3-(3-hydroxy-3-methylbut-1-yn-1-yl)imidazo[1,2-b]pyridazin-6-yl)-2-methylphenyl)-3-phenylisoxazolidine-2-carboxamide] | 2.4
15 | Cc1ccc(-c2ccn3nc(N)cc3c2)cc1NC(=O)N1OCC[C@H]1c1ccccc1 [Example 126, (S)-N-(5-(2-aminopyrazolo[1,5-a]pyridin-5-yl)-2-methylphenyl)-3-phenylisoxazolidine-2-carboxamide] | 0.4
16 | Nc1nc2ccc(-c3ccc(F)c(NC(=O)N4OCC[C@H]4c4ccccc4)c3F)cc2s1 [Example 132, (S)-N-(3-(2-aminobenzo[d]thiazol-6-yl)-2,6-difluorophenyl)-3-phenylisoxazolidine-2-carboxamide] | 8.1
17 | CC(=O)Nc1cn2nc(-c3cnc(C)c(NC(=O)N4OCC[C@H]4c4ccccc4)c3)ccc2n1 [Example 11, (S)-N-(5-(2-acetamidoimidazo[1,2-b]pyridazin-6-yl)-2-methylpyridin-3-yl)-3-phenylisoxazolidine-2-carboxamide] | 0.9
18 | COc1ncc(-c2ccc3nc(N)nn3c2)cc1NC(=O)N1OCC[C@H]1c1cccc(F)c1 [Example 58, (S)-N-(5-(2-amino-[1,2,4]triazolo[1,5-a]pyridin-6-yl)-2-methoxypyridin-3-yl)-3-(3-fluorophenyl)isoxazolidine-2-carboxamide] | 3.9
19 | COc1ncc(-c2ccc3nc(NC(C)=O)sc3n2)cc1NC(=O)N1OCC[C@H]1c1ccccc1 [Example 14, (S)-N-(5-(2-acetamidothiazolo[5,4-b]pyridin-5-yl)-2-methoxypyridin-3-yl)-3-phenylisoxazolidine-2-carboxamide] | 0.7
20 | Cc1ccc(-c2ccn3nc(N)cc3c2)cc1NC(=O)N1OCC2(CC2)[C@H]1c1ccccc1 [Example 140, (R)-N-(5-(2-aminopyrazolo[1,5-a]pyridin-5-yl)-2-methylphenyl)-7-phenyl-5-oxa-6-azaspiro[2.4]heptane-6-carboxamide] | 1.7
21 | Cc1ccc(-c2ccc3ncc(C#N)n3c2)cc1NC(=O)N1OCC[C@H]1c1ccccc1 [Example 114, (S)-N-(5-(3-cyanoimidazo[1,2-a]pyridin-6-yl)-2-methylphenyl)-3-phenylisoxazolidine-2-carboxamide] | 1.9
22 | COCC(=O)Nc1cn2nc(-c3cnc(OC)c(NC(=O)N4OCC[C@H]4c4ccccc4)c3)ccc2n1 [Example 6, (S)-N-(2-methoxy-5-(2-(2-methoxyacetamido)imidazo[1,2-b]pyridazin-6-yl)pyridin-3-yl)-3-phenylisoxazolidine-2-carboxamide] | 0.9
23 | Cc1ncc(-c2ccn3nc(NC(=O)C4CC4)nc3c2)cc1NC(=O)N1OCC[C@H]1c1ccccc1 [Example 48, (S)-N-(5-(2-(cyclopropanecarboxamido)-[1,2,4]triazolo[1,5-a]pyridin-7-yl)-2-methylpyridin-3-yl)-3-phenylisoxazolidine-2-carboxamide] | 0.4
24 | CN(C)C1CCC(NC(=O)c2n[nH]c3cc(-c4cccc(NC(=O)N5OCC[C@H]5c5ccccc5)c4)ccc23)CC1 (stereo partly drawn) [Example 20, (S)-N-(3-(3-((4-(dimethylamino)cyclohexyl)carbamoyl)-1H-indazol-6-yl)phenyl)-3-phenylisoxazolidine-2-carboxamide] | 0.3
25 | Cc1ccc(-c2ccn3nc(N)nc3c2)cc1NC(=O)N1OCC[C@H]1c1ccc(Cl)cc1 [Example 65, (S)-N-(5-(2-amino-[1,2,4]triazolo[1,5-a]pyridin-7-yl)-2-methylphenyl)-3-(4-chlorophenyl)isoxazolidine-2-carboxamide] | 0.2
26 | Cc1ncc(-c2ccn3nc(N)nc3c2)cc1NC(=O)N1OCC[C@H]1c1ccc(C#N)cc1 [Example 70, (S)-N-(5-(2-amino-[1,2,4]triazolo[1,5-a]pyridin-7-yl)-2-methylpyridin-3-yl)-3-(4-cyanophenyl)isoxazolidine-2-carboxamide] | 5.2
27 | COc1ccc(-c2ccc3nc(NC(C)=O)oc3c2)cc1NC(=O)N1OCC[C@H]1c1ccccc1 [Example 16, (S)-N-(5-(2-acetamidobenzo[d]oxazol-6-yl)-2-methoxyphenyl)-3-phenylisoxazolidine-2-carboxamide] | 4.9
